Assay results from BindingDB's records for doi:10.1016/j.chembiol.2006.05.015 (The Scripps Research Institute, 2006).

Experiments:
[1] = target: T1, Tyrosine-protein kinase ABL1 [1-999,Q252H] (Homo sapiens, UniProt P00519, Q252H); assay: Biochemcial Assay; conditions: pH 7.5
T1 construct: 1-999
Source text: An in vitro kinase assay using dephophorylated conformationally inactive Abl kinase was obtained by treating pure recombinant Abl with Yersinia […] phosphatase from Calbiochem.

[2] = target: T1, Tyrosine-protein kinase ABL1 [1-999,Q252H]; assay: Biochemcial Assay; conditions: pH 7.5; remark: listed apart in the source
Source text: An in vitro kinase assay using phosphorylated recombinant human Abl kinase domains to phosphorylate a peptide substrate.

IC50 [1]	IC50 [2]	Compound
9.1 nM	150 nM	CC(O)c1cccc(Nc2ncc3cc(-c4cc(N(C)C(=O)c5cccc(C(F)(F)F)c5)ccc4Cl)c(=O)n(C)c3n2)c1 (stereo unspecified) [Type II inhibitor, 13]
> 5000 nM	> 5000 nM	Cc1cc(N(C)C(=O)c2cccc(C(F)(F)F)c2)ccc1NC(=O)c1cc2cnc3[nH]ccc3c2s1 [Type II inhibitor, 10]
> 5000 nM	> 5000 nM	Cc1ccc(Cl)cc1Nc1nccc(-c2cccnc2)n1 [Type I progenitor, 1]
374 nM	> 5000 nM	O=C(Nc1ccc(Oc2ncnc3[nH]ccc23)cc1)Nc1cccc(C(F)(F)F)c1 [Type II inhibitor, 5]
5.8 nM	5.7 nM	CC(O)c1cccc(Nc2ncc3cc(-c4c(Cl)cccc4Cl)c(=O)n(C)c3n2)c1 (stereo unspecified) [Type I progenitor, 11]
> 5000 nM	> 5000 nM	O=[N+]([O-])c1ccc(Oc2ncnc3[nH]ccc23)cc1 [Type I progenitor, 4]
27.2 nM	19.6 nM	CC(O)c1cccc(Nc2ncc3cc(-c4cc(NC(=O)c5cccc(C(F)(F)F)c5)ccc4Cl)c(=O)n(C)c3n2)c1 (stereo unspecified) [Type II inhibitor, 12]
1360 nM	> 5000 nM	Cc1ccc(N(C)C(=O)c2cccc(C(F)(F)F)c2)cc1Nc1nccc(-c2cccnc2)n1 [Type II inhibitor, 3]
5 nM	152 nM	Cc1ccc(NC(=O)c2cccc(C(F)(F)F)c2)cc1Nc1nccc(-c2cccnc2)n1 [Type II inhibitor, 2]
154 nM	> 5000 nM	Cc1cc(NC(=O)c2cccc(C(F)(F)F)c2)ccc1NC(=O)c1cc2cnc3[nH]ccc3c2s1 [Type II inhibitor, 8]
> 5000 nM	> 5000 nM	O=C(Cc1cccc(C(F)(F)F)c1)Nc1ccc(Oc2ncnc3[nH]ccc23)cc1 [Type II inhibitor, 6]
> 5000 nM	> 5000 nM	Cc1ccc(N(C)C(=O)c2cccc(C(F)(F)F)c2)cc1N1Cc2cnc(N)nc2N(C)C1=O [Type II inhibitor, 15]
> 5000 nM	> 5000 nM	O=C(Nc1ccc(N2CCOCC2)cc1)c1cc2cnc3[nH]ccc3c2s1 [Type I progenitor, 7]
